Reference: the NIST ThermoML archive (doi:10.1021/acs.jced.7b00159)

Settings: Liquid, Pendant drop shape

CCCCCCCCCC [decane] + O=C=O
interfacial tension [mN/m]
Settings | 323.15 K | 353.15 K
900 kPa | 18.82 | –
1200 kPa | – | 16.45
2100 kPa | 16.35 | 15.25
2990 kPa | 14.77 | –
3020 kPa | – | 14.07
4100 kPa | 12.56 | 12.52
5100 kPa | – | 11.28
6100 kPa | 8.43 | 9.86
7100 kPa | 6.85 | –
7110 kPa | – | 8.6
8100 kPa | 4.89 | 7.85
9100 kPa | – | 5.91
10100 kPa | – | 4.65

CCCCCCCCCCCCCCCCCC [octadecane] + O=C=O
interfacial tension [mN/m]
Settings | 323.15 K | 353.15 K
400 kPa | – | 20.05
410 kPa | 23.35 | –
1100 kPa | – | 19.16
1300 kPa | 21.23 | –
2000 kPa | 18.53 | –
2200 kPa | – | 17.73
2670 kPa | 17.13 | –
3200 kPa | 15.63 | –
3300 kPa | – | 16.22
4000 kPa | 14.12 | –
4180 kPa | – | 15.13
5100 kPa | 11.94 | –
5300 kPa | – | 13.86
6150 kPa | – | 12.92
6250 kPa | 9.84 | –
7000 kPa | 8.65 | –
7200 kPa | – | 11.8
8100 kPa | – | 10.68
8150 kPa | 5.07 | –
9100 kPa | 3.15 | –
9300 kPa | – | 9.66
10100 kPa | 1.83 | 8.87
11100 kPa | – | 7.66
12100 kPa | – | 6.63
13000 kPa | – | 5.74
14000 kPa | – | 4.91
15000 kPa | – | 4.05
16300 kPa | – | 3.08
17400 kPa | – | 2.49

CCCCCCCCCCCCCCCCCCC [nonadecane] + O=C=O
interfacial tension [mN/m]
Settings | 323.15 K | 353.15 K
1100 kPa | – | 19.52
2060 kPa | – | 18.23
2400 kPa | 20.57 | –
3100 kPa | – | 16.88
3200 kPa | 18.91 | –
4140 kPa | – | 15.58
4200 kPa | 17.25 | –
5050 kPa | 15.27 | –
5140 kPa | – | 14.35
6060 kPa | – | 13.27
6150 kPa | 12.93 | –
7100 kPa | 11.35 | –
7120 kPa | – | 12.06
8050 kPa | – | 11.03
8200 kPa | 9.61 | –
9200 kPa | 7.78 | 9.76
10000 kPa | 6.39 | –
10020 kPa | – | 8.94
11100 kPa | – | 7.87
12000 kPa | – | 7
13070 kPa | – | 5.97
14040 kPa | – | 5.08

CCCCCCCCCCCCCCCC [hexadecane] + O=C=O
Settings | interfacial tension [mN/m]
323.15 K, 1030 kPa | 21.5
323.15 K, 2050 kPa | 19.61
323.15 K, 2960 kPa | 17.95
323.15 K, 4010 kPa | 15.94
323.15 K, 5020 kPa | 14.12
323.15 K, 5960 kPa | 12.43
323.15 K, 7000 kPa | 10.52
323.15 K, 8020 kPa | 8.71
323.15 K, 8960 kPa | 6.98
323.15 K, 9040 kPa | 7.5
323.15 K, 10020 kPa | 5.02
353.15 K, 1200 kPa | 18.68
353.15 K, 2100 kPa | 17.48
353.15 K, 3200 kPa | 16.05
353.15 K, 4040 kPa | 14.99
353.15 K, 5120 kPa | 13.67
353.15 K, 6110 kPa | 12.5
353.15 K, 7090 kPa | 11.37
353.15 K, 8090 kPa | 10.25
353.15 K, 8990 kPa | 9.28
353.15 K, 10050 kPa | 8.1
353.15 K, 11120 kPa | 7.11
353.15 K, 12010 kPa | 6.12

CCCCCCCCCCC [undecane] + O=C=O
interfacial tension [mN/m]
Settings | 323.15 K | 353.15 K
1030 kPa | 19.26 | –
1100 kPa | – | 17.09
2100 kPa | 17.25 | 15.83
3100 kPa | 15.05 | 14.38
4100 kPa | 13.12 | 13.17
5100 kPa | 10.98 | 11.69
6100 kPa | 8.68 | 10.45
7100 kPa | 7.2 | 9.31
8100 kPa | 4.95 | 7.45
9100 kPa | – | 6.45
10100 kPa | – | 5.59
11100 kPa | – | 4.37
12100 kPa | – | 3.39

CCCCCCCCCCCCCC [tetradecane] + O=C=O
interfacial tension [mN/m]
Settings | 323.15 K | 353.15 K
1050 kPa | 20.79 | –
1200 kPa | – | 18.19
2100 kPa | – | 17.01
2110 kPa | 18.89 | –
3050 kPa | 17.05 | –
3200 kPa | – | 15.62
3950 kPa | 15.41 | –
4040 kPa | – | 14.48
5020 kPa | 13.51 | –
5120 kPa | – | 13.21
5960 kPa | 11.59 | –
6110 kPa | – | 12.2
7030 kPa | 9.79 | –
7090 kPa | – | 10.94
8000 kPa | 8.27 | –
8090 kPa | – | 9.9
8940 kPa | 6.5 | –
9020 kPa | 6.35 | –
10050 kPa | 3.98 | 7.61
11120 kPa | – | 6.5
12010 kPa | – | 5.5

CCCCCCCCCCCCCCC [pentadecane] + O=C=O
interfacial tension [mN/m]
Settings | 323.15 K | 353.15 K
1050 kPa | 21.31 | –
1500 kPa | – | 18.19
2100 kPa | – | 17.27
2130 kPa | 19.32 | –
3100 kPa | 17.53 | 16.23
4050 kPa | 15.63 | –
4200 kPa | – | 14.66
5130 kPa | 13.49 | –
5400 kPa | – | 13.29
6100 kPa | 11.98 | 12.36
7100 kPa | 10.16 | –
7900 kPa | – | 10.2
8100 kPa | 8.46 | –
8900 kPa | – | 8.9
9000 kPa | 6.66 | –
9600 kPa | 5.32 | –
10000 kPa | – | 7.87
10100 kPa | 4.72 | –
11100 kPa | – | 6.78
12100 kPa | – | 5.82
13100 kPa | – | 4.66
14100 kPa | – | 3.75
15100 kPa | – | 3.06

CCCCCCCCCCCCC [tridecane] + O=C=O
interfacial tension [mN/m]
Settings | 323.15 K | 353.15 K
1100 kPa | 20 | –
1500 kPa | – | 17.72
2100 kPa | 18.27 | –
2600 kPa | – | 16.09
4100 kPa | 14.42 | 14.09
5100 kPa | 12.93 | 12.85
6100 kPa | 11.47 | 12.02
7100 kPa | 9.42 | 10.41
8100 kPa | – | 9.58
8600 kPa | 6.83 | –
9100 kPa | – | 8.18
9600 kPa | 4.91 | –
10100 kPa | – | 7.07
10600 kPa | 2.83 | –
11100 kPa | – | 6.1
12100 kPa | – | 4.84
13100 kPa | – | 3.89
14100 kPa | – | 3.14
15100 kPa | – | 2.21
16100 kPa | – | 1.68
17100 kPa | – | 1.14

CCCCCCCCCCCCCCCCCCCC [eicosane] + O=C=O
353.15 K
Settings | interfacial tension [mN/m]
1000 kPa | 20.35
2000 kPa | 18.99
4000 kPa | 16.13
6000 kPa | 13.37
8000 kPa | 10.34
10000 kPa | 7.85
12000 kPa | 5.55
14000 kPa | 3.71
16000 kPa | 2.38

CCCCCCCCCCCCCCCCC [heptadecane] + O=C=O
interfacial tension [mN/m]
Settings | 323.15 K | 353.15 K
1100 kPa | – | 18.47
1200 kPa | 20.95 | –
2100 kPa | – | 17.15
2600 kPa | 18.3 | –
3300 kPa | 16.99 | 15.48
4100 kPa | 15.49 | 14.62
5100 kPa | 13.95 | –
5200 kPa | – | 13.38
6100 kPa | 11.78 | –
6720 kPa | – | 11.71
7100 kPa | – | 11.26
7300 kPa | 9.69 | –
8120 kPa | 8.52 | –
8150 kPa | – | 10.09
9300 kPa | – | 9.14
10100 kPa | 5.08 | –
10600 kPa | – | 7.78
12600 kPa | – | 5.78
14100 kPa | – | 4.3
15100 kPa | – | 3.57
16200 kPa | – | 2.81

CCCCCCCCCCCC [dodecane] + O=C=O
interfacial tension [mN/m]
Settings | 323.15 K | 353.15 K
1100 kPa | 19.27 | 16.94
2100 kPa | 17.29 | 16.02
3100 kPa | – | 14.66
3600 kPa | 14.47 | –
4100 kPa | 13.55 | 13.4
5100 kPa | – | 11.99
6100 kPa | 9.51 | 10.69
7100 kPa | 7.68 | 9.44
8100 kPa | 5.57 | 8.32
9100 kPa | – | 6.96
10100 kPa | – | 5.88
11100 kPa | – | 4.8
